Assay results from patent US6362166B1, “Antipicornaviral compounds and methods for their use and preparation” (Agouron Pharmaceuticals, Inc., priority 1996, dated 2002).
Read-outs that look alike come from different tables or passages of the source.

Tests used:
[1] = Cytotoxicity in mock-infected HI-HeLa cells (antirhinoviral assay, XTT); format: cell-based; details: human; mock-infected HI-HeLa cells; two days; XTT; read-out: CC50
[2] = biological target: T1, Recombinant Rhinovirus 3C protease (RVP) serotype 16 (Human rhinovirus 16, UniProt Q82122); experiment: Inhibition of Rhinovirus Protease (fluorescence resonance energy transfer assay), serotype 16; format: biochemical, human rhinovirus (HRV); details: RVP serotype 16, progress curves in enzyme start experiments; for kinact/KI: pH 7.6, read-out: kobs/I
T1 construct: Recombinant Rhinovirus 3C proteases from serotypes 14, 16, 2 or 89; made in house
T1 sequence (Q82122 1511-1693): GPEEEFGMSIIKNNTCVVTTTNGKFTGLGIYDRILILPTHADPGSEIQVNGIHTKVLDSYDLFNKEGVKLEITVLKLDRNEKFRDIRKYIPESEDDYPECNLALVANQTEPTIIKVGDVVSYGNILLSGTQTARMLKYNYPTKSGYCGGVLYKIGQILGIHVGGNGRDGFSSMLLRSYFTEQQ
Method: (§1) Stock solution (50 mM, in DMSO) of various compounds were prepared; dilutions were in the same solvent. Recombinant Rhinovirus 3C proteases from serotypes 14, 16, 2 or 89 were prepared by the following standard chromatographic procedures: (1) ion exchange using Q Sepharose Fast Flow from Pharmacia; (2) affinity chromatography using Affi-Gel Blue from Biorad; and (3) sizing using Sephadex G-100 from Pharmacia. Assays contained 2% DMSO, 50 mM tris pH 7.6, 1 mM EDTA, a compound at the indicated concentrations, approximately 1 μM substrate, and 50-100 nM protease. […] The kobs/I values were obtained from reactions initiated by addition of enzyme rather than substrate. RVP activity is measured in the fluorescence resonance energy transfer assay. The substrate was (N-terminal) DABCYL-([…]Gyl)-EDANS. In the uncleaved peptide, the EDANS fluorescence was quenched by the proximal DABCYL moeity. When the peptide was cleaved, the quenching was relieved, and activity was measured as an increase in fluorescence signal.
(§2) In the above table, all data is RVP serotype-14 unless otherwise noted in parentheses. All strains of human rhinovirus (HRV) were purchased from American Type Culture Collection (ATCC), except for serotype 14, which was produced from the infectious cDNA clone constructed and supplied to us by Dr. Roland Rueckert at the Institute for Molecular Virology, University of Wisconsin, Madison, Wisc. […] The data in the column designated kobs/I was measured from progress curves in enzyme start experiments.

HRV-14 = experiment: Antirhinoviral HI-HeLa Cell Culture Assay (Cell Protection Assay, XTT dye reduction); format: cell-based, human rhinovirus (HRV) serotype-14
How it was run: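 Protection measured via XTT dye reduction (450/650 nm) two days after compound treatment of HI-HeLa cells, mock-infected or infected with cDNA-derived HRV-14 at m.o.i. 0.13. CC50 divided by EC50 gives the therapeutic index.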

[3] = biological target: T2, Recombinant Rhinovirus 3C protease (RVP) serotype 2 (Human rhinovirus 2, UniProt P04936); experiment: Inhibition of Rhinovirus Protease (fluorescence resonance energy transfer assay), serotype 2; format: biochemical, human rhinovirus (HRV); details: for kinact/KI: pH 7.6, progress curves in enzyme start experiments, read-out: kobs/I; for kobs/I: progress curves in enzyme start experiments
T2 construct: Recombinant Rhinovirus 3C proteases from serotypes 14, 16, 2 or 89; made in house
T2 sequence (P04936 1508-1690): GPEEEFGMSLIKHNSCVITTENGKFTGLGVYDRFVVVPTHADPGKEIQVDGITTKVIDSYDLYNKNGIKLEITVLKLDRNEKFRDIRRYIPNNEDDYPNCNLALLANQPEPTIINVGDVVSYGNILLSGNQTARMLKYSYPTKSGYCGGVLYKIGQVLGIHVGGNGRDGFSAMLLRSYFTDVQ
Method: as §1, §2

[4] = biological target: T3, Recombinant Rhinovirus 3C protease (RVP) serotype-14 (Human rhinovirus 14, UniProt P03303); experiment: Inhibition of Rhinovirus Protease (fluorescence resonance energy transfer assay), serotype 14; format: biochemical, human rhinovirus (HRV); details: for kinact/KI: pH 7.6, read-out: kobs/I; for kobs/I: RVP serotype-14, progress curves in enzyme start experiments
T3 construct: Recombinant Rhinovirus 3C proteases from serotypes 14, 16, 2 or 89; made in house
T3 sequence (P03303 1538-1719): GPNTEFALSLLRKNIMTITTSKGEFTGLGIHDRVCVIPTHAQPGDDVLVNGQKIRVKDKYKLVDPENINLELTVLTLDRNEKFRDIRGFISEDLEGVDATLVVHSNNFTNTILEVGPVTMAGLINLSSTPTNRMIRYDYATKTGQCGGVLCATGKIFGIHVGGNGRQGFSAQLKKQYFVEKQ

HI-HeLa cells = experiment: Cytotoxicity in mock-infected HI-HeLa cells (antirhinoviral assay, XTT); format: cell-based
[5] = Rhinovirus B, HRV14, 48 h, HI-HeLa cells infected with HRV-14, m.o.i. 0.13, two days, XTT, read-out: EC50
[6] = HI-HeLa cells infected with HRV-14, m.o.i. 0.13, two days, XTT, read-out: EC50

CCOC(=O)/C=C/[C@H](CCC(N)=O)NC(=O)[C@H](Cc1ccccc1)NC(=O)[C@H](CC(C)C)NC(=O)SCc1ccccc1 [Compound 106]
CC50 at 2 days [1]: > 320000 nM | kinact/KI [2]: 75000 M⁻¹ s⁻¹ | EC50 (HRV-14; [5]): 270 nM | kinact/KI [3]: 28400 M⁻¹ s⁻¹ | Ki [4]: 2000 nM | kinact/KI [4]: 280000 M⁻¹ s⁻¹

CCOC(=O)/C=C/[C@H](CCC(N)=O)NC(=O)[C@H](Cc1ccccc1)NC(=O)[C@H](CC(=O)O)NC(=O)OCc1ccccc1 [Compound 159]
CC50 at 2 days [1]: > 320000 nM | kinact/KI [2]: 6500 M⁻¹ s⁻¹ | EC50 (HRV-14; [5]): 2400 nM | kinact/KI [3]: 2500 M⁻¹ s⁻¹ | Ki [4]: 500 nM | kinact/KI [4]: 35000 M⁻¹ s⁻¹

CCOC(=O)/C=C/[C@H](CCC(N)=O)NC(=O)[C@H](Cc1ccccc1)NC(=O)[C@H](CCC(=O)O)NC(=O)OCc1ccccc1 [Compound 154]
CC50 at 2 days [1]: > 320000 nM | kinact/KI [2]: 13900 M⁻¹ s⁻¹ | EC50 (HRV-14; [5]): 5500 nM | kinact/KI [3]: 5400 M⁻¹ s⁻¹ | Ki [4]: 1100 nM | kinact/KI [4]: 78900 M⁻¹ s⁻¹

CCOC(=O)/C=C/[C@H](CCC(N)=O)NC(=O)[C@H](Cc1ccccc1)NC(=O)[C@H](CCc1ccccc1)NC(=O)SCc1ccccc1 [Compound 162]
CC50 (HI-HeLa cells): > 100000 nM | kobs/I [2]: 80,000 M-1 sec-1 | EC50 (HRV-14; [6]): 320 nM | kobs/I [3]: 150,000 M-1 sec-1 | kobs/I [4]: 800,000 M-1 sec-1

CCOC(=O)C=CC(CCC(N)=O)NC(=O)C(Cc1ccccc1)NC(=O)C(NC(=O)OCc1ccccc1)C(C)CC (stereo not drawn) [Compound 172]
CC50 (HI-HeLa cells): > 100000 nM | kobs/I [2]: 6,000 M-1 sec-1 | EC50 (HRV-14; [6]): 790 nM | kobs/I [3]: 2,000 M-1 sec-1 | kobs/I [4]: 31,700 M-1 sec-1

CCOC(=O)/C=C/[C@H](CCC(N)=O)NC(=O)[C@H](Cc1ccccc1)NC(=O)[C@H](CSCc1ccccc1)NC(=O)OCc1ccccc1 [Compound 165]
CC50 (HI-HeLa cells): > 100000 nM | kobs/I [2]: 20,200 M-1 sec-1 | EC50 (HRV-14; [6]): 200 nM | kobs/I [3]: 5,600 M-1 sec-1 | kobs/I [4]: 97,000 M-1 sec-1

CCOC(=O)/C=C/[C@H](CCC(N)=O)NC(=O)[C@H](Cc1ccccc1)NC(=O)[C@@H](NC(=O)SCC)C(C)(C)C [Compound 167, Ethyl-3-[Ethylthiocarbonyl-L-α-(t-Butyl-Gly)-L-Phe-L-Gln]-E-Propenoate]
CC50 (HI-HeLa cells): > 100000 nM | kobs/I [2]: 42,100 M-1 sec-1 | EC50 (HRV-14; [6]): 83 nM | kobs/I [3]: 10,700 M-1 sec-1 | kobs/I [4]: 165,400 M-1 sec-1

CCOC(=O)/C(C)=C/[C@H](CCC(N)=O)NC(=O)[C@H](Cc1ccccc1)NC(=O)[C@H](CC(C)C)NC(=O)SC(C)C [Compound 171]
CC50 (HI-HeLa cells): > 100000 nM | kobs/I [2]: 3,250 M-1 sec-1 | EC50 (HRV-14; [6]): 710 nM | kobs/I [3]: 830 M⁻¹ s⁻¹ | kobs/I [4]: 21,200 M-1 sec-1

CCOC(=O)/C=C/[C@H](CCC(N)=O)NC(=O)[C@H](Cc1ccccc1)NC(=O)[C@H](CSc1ccccc1)NC(=O)OCc1ccccc1 [Compound 153]
CC50 at 2 days [1]: > 320000 nM | kinact/KI [2]: 30600 M⁻¹ s⁻¹ | EC50 (HRV-14; [5]): 120 nM | kinact/KI [3]: 13400 M⁻¹ s⁻¹ | Ki [4]: 1400 nM | kinact/KI [4]: 141000 M⁻¹ s⁻¹

CCOC(=O)/C=C/[C@H](CCC(N)=O)NC(=O)[C@H](CC1CCCCC1)NC(=O)[C@H](CC(C)C)NC(=O)OCc1ccccc1 [Compound 135]
CC50 (HI-HeLa cells; mock-infected HI-HeLa cells, two days, XTT, read-out: CC50): > 320000 nM | kobs/I [2]: 3,465 M-1 sec-1 | EC50 (HRV-14; [6]): 1900 nM | kobs/I [3]: 671 M⁻¹ s⁻¹ | kobs/I [4]: 16,270 M-1 sec-1

CCOC(=O)/C=C/[C@H](CCC(N)=O)NC(=O)[C@H](Cc1ccccc1)NC(=O)[C@H](CC(C)C)NC(=O)SCC [Compound 120]
CC50 at 2 days [1]: > 320000 nM | kinact/KI [2]: 20000 M⁻¹ s⁻¹ | EC50 (HRV-14; [5]): 460 nM | kinact/KI [3]: 8900 M⁻¹ s⁻¹ | Ki [4]: 6000 nM | kinact/KI [4]: 91300 M⁻¹ s⁻¹

CCC[C@H](NC(=O)[C@H](CC(C)C)NC(=O)OCc1ccccc1)C(=O)N[C@H](/C=C/C(=O)OCC)CCC(N)=O [Compound 137]
CC50 (HI-HeLa cells): > 320000 nM | kobs/I [2]: 1,157 M-1 sec-1 | EC50 (HRV-14; [6]): 224000 nM | kobs/I [3]: 643 M⁻¹ s⁻¹ | kobs/I [4]: 2,344 M-1 sec-1

CCOC(=O)/C=C/[C@H](CCC(N)=O)NC(=O)[C@H](Cc1ccccc1)NC(=O)[C@H](CSc1ccccc1)NC(=O)SC1CCCC1 [Compound 173, Ethyl-3-[Cyclopentylthiocarbonyl-L-(S-Ph-Cys)-L-Phe-L-Gln]-E-Propenoate]
CC50 (HI-HeLa cells): > 100000 nM | kobs/I [2]: 185,000 M-1 sec-1 | EC50 (HRV-14; [6]): 80 nM | kobs/I [3]: 113,000 M-1 sec-1 | kobs/I [4]: 1,000,000 M-1 sec-1

CCOC(=O)C=CC(CCC(N)=O)NC(=O)C(Cc1ccccc1)NC(=O)C(CCc1ccccc1)NC(=O)OCc1ccccc1 (stereo not drawn) [Compound 148]
CC50 at 2 days [1]: > 320000 nM | kinact/KI [2]: 14800 M⁻¹ s⁻¹ | EC50 (HRV-14; [5]): 250 nM | kinact/KI [3]: 8300 M⁻¹ s⁻¹ | kinact/KI [4]: 57000 M⁻¹ s⁻¹

CCOC(=O)/C=C/[C@H](CCC(N)=O)NC(=O)[C@H](Cc1ccccc1)NC(=O)[C@H](Cc1ccccc1)NC(=O)OCc1ccccc1 [Compound 157]
CC50 at 2 days [1]: > 320000 nM | kinact/KI [2]: 30800 M⁻¹ s⁻¹ | EC50 (HRV-14; [5]): 560 nM | kinact/KI [3]: 9700 M⁻¹ s⁻¹ | Ki [4]: 6000 nM | kinact/KI [4]: 162000 M⁻¹ s⁻¹

CCOC(=O)C=CC(CCC(N)=O)NC(=O)C(Cc1ccc(C)cc1)NC(=O)C(CC(C)C)NC(=O)OCc1ccccc1 (stereo not drawn) [Compound 155]
CC50 at 2 days [1]: > 320000 nM | kinact/KI [2]: 5250 M⁻¹ s⁻¹ | EC50 (HRV-14; Rhinovirus B, HRV14, 48 h): 180 nM | kinact/KI [3]: 1390 M⁻¹ s⁻¹ | kinact/KI [4]: 59400 M⁻¹ s⁻¹

CCOC(=O)/C=C/[C@H](CCC(N)=O)NC(=O)[C@H](Cc1ccccc1)NC(=O)[C@H](CO)NC(=O)OCc1ccccc1 [Compound 149]
CC50 (HI-HeLa cells): > 320000 nM | kobs/I [2]: 7,700 M-1 sec-1 | EC50 (HRV-14; [6]): 1780 nM | kobs/I [3]: 2,840 M-1 sec-1 | kobs/I [4]: 39,940 M-1 sec-1

CCOC(=O)/C=C/[C@H](CCC(N)=O)NC(=O)[C@H](Cc1ccccc1)NC(=O)[C@H](C[S+]([O-])Cc1ccccc1)NC(=O)OCc1ccccc1 (stereo partly drawn) [Compound 166]
CC50 (HI-HeLa cells): > 100000 nM | kobs/I [2]: 7,700 M-1 sec-1 | EC50 (HRV-14; [6]): 5600 nM | kobs/I [3]: 3,500 M-1 sec-1 | kobs/I [4]: 40,900 M-1 sec-1
